According to patent publication US5436229A, “Bisulfite adducts of arginine aldehydes” (Eli Lilly and Company, priority 1994, dated 1995):
Non-standard residues stand in square brackets, D forms with d. Residues, ends and D or L forms follow the SMILES beside them. dNMeCha = CN[C@H](CC1CCCCC1)C(=O)O

Columns and labels:
[1] = target: human thrombin (Homo sapiens, UniProt P00734); assay: Thrombin amidase inhibition (Kass), chromogenic substrate; type: biochemical
How it was run: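 Kass, in liter per mole, was averaged over several compound concentrations, using free thrombin from a rate standard curve and free inhibitor as added minus bound. Hydrolysis of chromogenic substrate (0.25 mg/ml solution) was monitored at 405 nm with human thrombin (8 NIH units/ml solution) in Tris-NaCl buffer pH 7.4, compound in 50% aqueous methanol.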

[2] = target: T1, Bovine trypsin (Bos taurus, UniProt P00760); assay: Serine protease inhibition (Kass), trypsin; type: biochemical
T1 construct: Bovine trypsin is purchased from Worthington Biochemicals; purchased Worthington Biochemicals, Freehold, N.J
T1 sequence (P00760 24-246): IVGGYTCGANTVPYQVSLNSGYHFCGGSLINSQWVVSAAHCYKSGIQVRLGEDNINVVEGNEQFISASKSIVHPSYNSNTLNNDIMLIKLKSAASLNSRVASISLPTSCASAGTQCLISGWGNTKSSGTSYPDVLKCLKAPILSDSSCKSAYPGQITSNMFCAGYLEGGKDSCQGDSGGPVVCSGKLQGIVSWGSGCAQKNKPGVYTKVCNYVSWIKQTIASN
How it was run: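 Chromogenic p-nitroanilide substrate assays run as for human thrombin; trypsin with N-Benzoyl-Phe-Val-Arg-p-nitroanilide, human factor Xa with N-Benzoyl-Ile-Glu-Gly-Arg-p-nitroanilide. Values are association constants (Kass).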

[3] = target: T2, Human plasmin (Homo sapiens, UniProt P00747); assay: Serine protease inhibition (Kass), plasmin; type: biochemical
T2 construct: Human plasmin is purchased from Boehringer Mannheim; purchased Boehringer Mannheim, Indianapolis, Ind
How it was run: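 Kass values come from the thrombin chromogenic procedure applied to fibrinolytic proteases. t-PA (nt-PA single chain, or mt-PA6) paired with substrate H-D-Ile-Pro-Arg-p-nitroanilide; human plasmin paired with H-D-Val-Leu-Lys-p-nitroanilide.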

[4] = target: T3, tissue plasminogen activator (t-PA) (Homo sapiens, UniProt P00750); assay: Serine protease inhibition (Kass), t-PA; type: biochemical
T3 construct: purchased American Diagnostica, Greenwich, Conn

[5] = system: human plasma; assay: Human plasma anticoagulation, activated partial thromboplastin time (APTT); type: biochemical
How it was run: (§1)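 Compounds added across a wide concentration range to human plasma; APTT, PT and TT clotting times measured on a coagulation instrument, bovine thrombin used for plasma assays. Concentration doubling clotting time estimated by linear extrapolation.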

[6] = system: human plasma; assay: Human plasma anticoagulation, prothrombin time (PT); type: biochemical
How it was run: as §1

[7] = Index of Bioavailability (plasma TT AUC, oral vs i.v.); type: in vivo; conditions: rats, oral vs i.v. bolus
From the text: Assays are done in duplicate and averaged.
Each sample population represents alternating sequential time points.

T2 sequence (P00747 581-810 limits assumed): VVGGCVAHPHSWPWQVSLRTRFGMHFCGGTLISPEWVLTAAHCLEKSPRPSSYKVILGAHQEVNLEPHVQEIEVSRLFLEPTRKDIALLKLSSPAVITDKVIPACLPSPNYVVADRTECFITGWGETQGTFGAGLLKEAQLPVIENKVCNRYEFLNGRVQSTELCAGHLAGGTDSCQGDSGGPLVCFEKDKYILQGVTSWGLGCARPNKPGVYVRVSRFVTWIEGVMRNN
T2 sequence (P00747 97-580 partner limits assumed): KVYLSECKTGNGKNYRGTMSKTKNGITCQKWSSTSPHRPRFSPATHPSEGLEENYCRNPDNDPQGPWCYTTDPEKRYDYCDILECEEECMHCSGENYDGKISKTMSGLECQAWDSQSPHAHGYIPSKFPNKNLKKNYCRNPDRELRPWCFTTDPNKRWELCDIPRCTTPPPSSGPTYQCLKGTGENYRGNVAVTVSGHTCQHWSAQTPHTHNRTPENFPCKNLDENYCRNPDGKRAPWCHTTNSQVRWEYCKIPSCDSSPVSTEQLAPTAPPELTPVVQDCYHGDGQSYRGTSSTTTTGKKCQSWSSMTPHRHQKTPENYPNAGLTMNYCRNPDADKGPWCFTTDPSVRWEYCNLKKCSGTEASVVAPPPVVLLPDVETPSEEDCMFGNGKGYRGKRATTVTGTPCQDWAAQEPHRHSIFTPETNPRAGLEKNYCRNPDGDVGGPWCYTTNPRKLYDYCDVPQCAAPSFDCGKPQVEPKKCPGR
T3 sequence (P00750 36-562): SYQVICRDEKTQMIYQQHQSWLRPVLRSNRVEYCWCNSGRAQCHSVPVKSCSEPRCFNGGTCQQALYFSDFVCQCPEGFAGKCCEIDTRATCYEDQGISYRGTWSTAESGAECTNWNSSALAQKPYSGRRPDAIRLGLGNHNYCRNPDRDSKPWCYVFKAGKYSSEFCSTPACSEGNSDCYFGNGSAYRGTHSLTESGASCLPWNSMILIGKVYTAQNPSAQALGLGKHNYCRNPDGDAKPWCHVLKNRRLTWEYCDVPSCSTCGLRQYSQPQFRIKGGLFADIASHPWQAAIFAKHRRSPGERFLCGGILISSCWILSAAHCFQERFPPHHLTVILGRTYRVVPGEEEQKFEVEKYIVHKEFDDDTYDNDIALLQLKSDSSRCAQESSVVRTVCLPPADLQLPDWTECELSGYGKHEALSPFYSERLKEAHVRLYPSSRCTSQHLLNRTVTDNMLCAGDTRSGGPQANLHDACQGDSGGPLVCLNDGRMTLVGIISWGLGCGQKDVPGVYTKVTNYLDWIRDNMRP

SMILES	Kass Human Thrombin [1] [L/mol × 10^6]	Kass Trypsin [2] [L/mol × 10^6]	Kass Plasmin [3] [L/mol × 10^6]	Kass t-PA [4] [L/mol × 10^6]	2 × Clotting time APTT [5] [ng/mL]	2 × Clotting time PT [6] [ng/mL]	Percent Relative Activity (Index of Bioavailability) [7] [%]
CN[C@H](CC1CCCCC1)C(=O)N1CCC[C@H]1C(=O)N[C@H](C=O)CCCNC(=N)N.Cl [Example 75, N-methyl-D-cyclohexylalanyl-L-Prolinyl-L-Arginine Aldehyde Hydrochloride] (H-[dNMeCha]-Pro-Arg-aldehyde)	590	160	7.7	0.37	420	720	13
N=C(N)NCCCC(C=O)NC(=O)C1CCCN1C(=O)C1CC2CCCCC2CN1.O=S(=O)(O)O [80 (Step F), D-3-(cis)Piq-Pro-Arg-H.H2 SO4]	56	183	1.6	0.5	–	–	46
